Source: patent publication US20220168317A1, “Therapeutic Thiazine Dye Compositions and Methods of Use” (AB BioInnovations, Inc., priority 2020, published 2022)

Key:
Settings in all cases: final concentration in well; CAMHB, 37° C., 24 hours; single compound
[1] = tested on: Staphylococcus aureus ATCC BAA-44
Experimental: (§1) Similarly, starting with a 1% methylene blue solution, a 2-fold serial dilution series was generated consisting of 24 members having a methylene blue concentration ranging from 1% to 1.1920929×10^−7%. Each dilution series was prepared using Cation-Adjusted Muller Hinton broth (CAMHB).
(§2) For each dilution series, 0.1 ml of each dilution, in order from most concentrated to least concentrated, was placed into a separate well of a 96-well tissue-culture plate. Select bacterial species were diluted in CAMHB so that 0.1 ml contained approximately 1×10^6 bacteria per ml. […] The tissue-culture plates were incubated at 37° C. for 24 hours.
(§3) After 24 hours, each well was visually assessed using a light microscope for bacterial growth.
(§4) 0.1 ml of each dilution, in order from most concentrated to least concentrated, was placed into an individual well of a 96-well tissue-culture plate. Select bacterial species were diluted in CAMHB so that 0.1 ml contained approximately 1×10^6 bacteria per ml. […] The tissue-culture plates were incubated at 37° C. for 24 hours.
(§5) After 24 hours, each well was visually assessed using a light microscope for bacterial growth. The dilution with the lowest concentrations capable of inhibiting bacterial growth was defined as the MIC.

[2] = tested on: Pseudomonas aeruginosa ATCC 27853
Experimental: as §1, §2, §3, §4, §5

[3] = tested on: Klebsiella pneumoniae ATCC 13883
Experimental: Each dilution series was prepared using Cation-Adjusted Muller Hinton broth (CAMHB).
as §2, §3

Compound	MIC [1] [%]	MIC [2] [%]	MIC [3] [%]
CN(C)c1ccc2nc3ccc(=[N+](C)C)cc-3sc2c1 [Methylene Blue, 3,7-bis(dimethylamine)-phenothiazin-5-ium chloride]	0.003906	0.5	0.25
O=P(O)(O)O [Phosphoric Acid, phosphoric acid]	0.332	0.332	0.332
